{"source": "paper PMC10924921", "about": "“Mi-2β promotes immune evasion in melanoma by activating EZH2 methylation” (Nature Communications, 2024)", "experiment_in_all_cases": "biochemical", "design_in_all_cases": "KINOMEscan active-site competition binding panel (468 kinase assays), per cent of control at 1000 nM", "conditions_in_all_cases": "KINOMEscan per cent of control (binding competition); read-out: Percent Control", "key": {"MKK7": {"target": "T1, MKK7 (Homo sapiens, UniProt O14733)", "T1 construct": "gene MAP2K7", "from_the_text": "(§1) Figure S7 / Percent Control"}, "WNK2": {"target": "WNK2 (Homo sapiens, UniProt Q9Y3S1)", "from_the_text": "as §1"}, "FLT3(ITD,D835V)": {"target": "FLT3(ITD,D835V) (Homo sapiens, UniProt P36888, D835V/ITD)", "from_the_text": "as §1"}, "AURKB": {"target": "AURKB (Homo sapiens, UniProt Q96GD4)", "from_the_text": "as §1"}, "FLT3(D835V)": {"target": "FLT3(D835V) (Homo sapiens, UniProt P36888, D835V)", "from_the_text": "as §1"}, "EPHA6": {"target": "EPHA6 (Homo sapiens, UniProt Q9UF33)", "sequence (Q9UF33 whole entry)": "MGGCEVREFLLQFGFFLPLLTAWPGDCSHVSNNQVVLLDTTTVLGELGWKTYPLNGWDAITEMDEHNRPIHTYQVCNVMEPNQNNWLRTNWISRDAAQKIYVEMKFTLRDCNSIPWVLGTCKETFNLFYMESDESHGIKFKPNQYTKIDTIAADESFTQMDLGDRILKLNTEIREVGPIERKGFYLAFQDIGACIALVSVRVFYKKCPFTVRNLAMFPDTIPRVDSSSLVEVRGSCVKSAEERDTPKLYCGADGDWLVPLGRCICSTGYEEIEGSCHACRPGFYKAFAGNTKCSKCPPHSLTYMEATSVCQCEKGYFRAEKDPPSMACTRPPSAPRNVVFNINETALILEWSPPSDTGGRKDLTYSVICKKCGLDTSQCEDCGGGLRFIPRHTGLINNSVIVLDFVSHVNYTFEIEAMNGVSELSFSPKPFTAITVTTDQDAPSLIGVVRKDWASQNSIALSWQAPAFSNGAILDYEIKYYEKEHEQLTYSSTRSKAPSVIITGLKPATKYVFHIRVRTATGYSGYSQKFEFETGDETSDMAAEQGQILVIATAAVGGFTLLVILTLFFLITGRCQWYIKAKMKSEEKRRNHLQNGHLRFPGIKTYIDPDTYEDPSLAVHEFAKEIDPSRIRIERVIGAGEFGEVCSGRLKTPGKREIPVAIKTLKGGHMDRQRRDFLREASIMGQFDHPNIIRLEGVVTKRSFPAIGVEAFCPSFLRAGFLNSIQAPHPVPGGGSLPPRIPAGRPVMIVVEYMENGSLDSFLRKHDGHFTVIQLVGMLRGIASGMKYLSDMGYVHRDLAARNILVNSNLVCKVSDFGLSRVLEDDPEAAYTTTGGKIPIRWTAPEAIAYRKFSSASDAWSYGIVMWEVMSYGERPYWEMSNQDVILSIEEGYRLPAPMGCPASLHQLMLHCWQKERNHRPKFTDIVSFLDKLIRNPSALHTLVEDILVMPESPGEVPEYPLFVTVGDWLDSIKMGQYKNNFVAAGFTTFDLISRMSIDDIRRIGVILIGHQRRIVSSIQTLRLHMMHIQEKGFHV", "from_the_text": "as §1"}, "EPHB1": {"target": "EPHB1 (Homo sapiens, UniProt P54762)", "from_the_text": "as §1"}, "ERBB3": {"target": "ERBB3 (Homo sapiens, UniProt P21860)", "from_the_text": "as §1"}, "CDK3": {"target": "CDK3 (Homo sapiens, UniProt Q00526)", "from_the_text": "as §1"}, "TNK1": {"target": "TNK1 (Homo sapiens, UniProt Q13470)", "from_the_text": "as §1"}, "YES": {"target": "T2, YES (Homo sapiens, UniProt P07947)", "T2 construct": "gene YES1", "T2 sequence (P07947 whole entry)": "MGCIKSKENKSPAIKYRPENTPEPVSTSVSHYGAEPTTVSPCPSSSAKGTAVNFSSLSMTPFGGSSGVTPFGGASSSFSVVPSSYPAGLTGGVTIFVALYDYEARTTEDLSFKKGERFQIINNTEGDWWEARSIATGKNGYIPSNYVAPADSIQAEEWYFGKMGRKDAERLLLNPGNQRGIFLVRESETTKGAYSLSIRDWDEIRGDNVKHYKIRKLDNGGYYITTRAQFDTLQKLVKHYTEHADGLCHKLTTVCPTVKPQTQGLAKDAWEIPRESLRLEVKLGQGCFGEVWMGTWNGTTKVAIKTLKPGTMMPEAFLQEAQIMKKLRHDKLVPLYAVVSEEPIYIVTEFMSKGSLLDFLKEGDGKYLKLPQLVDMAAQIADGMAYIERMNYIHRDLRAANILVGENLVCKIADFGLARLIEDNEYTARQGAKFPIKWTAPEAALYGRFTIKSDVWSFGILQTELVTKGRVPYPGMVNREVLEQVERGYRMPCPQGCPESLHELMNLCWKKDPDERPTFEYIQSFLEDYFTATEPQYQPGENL", "from_the_text": "as §1"}, "GSK3A": {"target": "GSK3A (Homo sapiens, UniProt P49840)", "from_the_text": "as §1"}, "TNNI3K": {"target": "TNNI3K (Homo sapiens, UniProt Q59H18)", "sequence (Q59H18 whole entry)": "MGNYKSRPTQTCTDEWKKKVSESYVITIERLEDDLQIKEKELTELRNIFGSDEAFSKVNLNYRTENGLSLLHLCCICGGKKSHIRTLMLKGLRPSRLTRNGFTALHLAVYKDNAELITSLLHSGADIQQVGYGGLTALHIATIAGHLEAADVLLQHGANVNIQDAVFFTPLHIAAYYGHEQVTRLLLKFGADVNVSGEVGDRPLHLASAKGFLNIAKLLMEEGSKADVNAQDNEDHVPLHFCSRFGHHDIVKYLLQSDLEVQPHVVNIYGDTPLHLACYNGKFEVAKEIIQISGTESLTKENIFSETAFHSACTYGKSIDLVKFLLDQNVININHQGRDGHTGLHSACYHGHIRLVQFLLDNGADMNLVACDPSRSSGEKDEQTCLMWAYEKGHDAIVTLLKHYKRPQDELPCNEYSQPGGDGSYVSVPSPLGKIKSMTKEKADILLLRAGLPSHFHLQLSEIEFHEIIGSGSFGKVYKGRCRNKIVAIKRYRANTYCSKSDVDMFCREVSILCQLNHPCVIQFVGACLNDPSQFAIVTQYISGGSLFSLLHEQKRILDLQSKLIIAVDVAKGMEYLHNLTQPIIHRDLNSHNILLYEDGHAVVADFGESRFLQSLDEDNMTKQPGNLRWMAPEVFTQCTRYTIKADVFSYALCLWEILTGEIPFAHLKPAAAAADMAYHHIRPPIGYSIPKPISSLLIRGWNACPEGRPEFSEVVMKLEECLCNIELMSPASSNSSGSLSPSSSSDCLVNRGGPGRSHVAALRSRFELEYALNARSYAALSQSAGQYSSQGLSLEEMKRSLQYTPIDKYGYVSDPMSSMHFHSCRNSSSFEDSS", "from_the_text": "as §1"}, "[1]": {"target": "T3, JAK2(JH1domain-catalytic) (Homo sapiens, UniProt O60674)", "T3 construct": "JH1domain-catalytic", "T3 sequence (O60674 whole entry)": "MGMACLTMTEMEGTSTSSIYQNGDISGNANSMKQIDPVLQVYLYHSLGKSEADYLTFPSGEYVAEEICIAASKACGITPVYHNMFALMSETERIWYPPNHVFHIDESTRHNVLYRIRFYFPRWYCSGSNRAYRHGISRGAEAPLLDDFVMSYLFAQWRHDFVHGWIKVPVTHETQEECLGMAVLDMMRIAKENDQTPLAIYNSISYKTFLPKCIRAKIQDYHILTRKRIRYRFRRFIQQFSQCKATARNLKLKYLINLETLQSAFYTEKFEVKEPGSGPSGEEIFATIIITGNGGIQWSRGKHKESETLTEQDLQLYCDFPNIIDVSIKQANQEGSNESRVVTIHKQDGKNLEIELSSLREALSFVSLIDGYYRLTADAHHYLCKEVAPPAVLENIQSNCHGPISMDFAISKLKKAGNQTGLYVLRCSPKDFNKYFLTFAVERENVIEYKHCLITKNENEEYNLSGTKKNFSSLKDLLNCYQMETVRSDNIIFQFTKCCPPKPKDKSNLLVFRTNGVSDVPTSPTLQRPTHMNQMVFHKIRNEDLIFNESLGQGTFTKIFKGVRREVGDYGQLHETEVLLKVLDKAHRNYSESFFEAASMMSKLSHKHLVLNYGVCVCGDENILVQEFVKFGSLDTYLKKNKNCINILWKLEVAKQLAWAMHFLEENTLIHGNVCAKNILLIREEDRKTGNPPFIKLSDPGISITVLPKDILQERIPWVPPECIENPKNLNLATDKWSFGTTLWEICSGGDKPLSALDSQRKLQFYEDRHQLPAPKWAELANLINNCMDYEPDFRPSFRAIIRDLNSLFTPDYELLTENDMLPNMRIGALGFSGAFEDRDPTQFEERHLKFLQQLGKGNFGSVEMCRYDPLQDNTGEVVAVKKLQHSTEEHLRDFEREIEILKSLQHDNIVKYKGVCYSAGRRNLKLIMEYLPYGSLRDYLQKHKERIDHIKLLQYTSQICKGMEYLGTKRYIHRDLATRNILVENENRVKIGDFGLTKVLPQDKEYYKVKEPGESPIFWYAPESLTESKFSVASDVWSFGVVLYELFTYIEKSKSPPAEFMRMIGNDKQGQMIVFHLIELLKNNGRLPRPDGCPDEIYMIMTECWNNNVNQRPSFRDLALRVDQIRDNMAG", "from_the_text": "as §1"}, "TRPM6": {"target": "TRPM6 (Homo sapiens, UniProt Q9BX84)", "from_the_text": "as §1"}, "PRP4": {"target": "T4, PRP4 (Homo sapiens, UniProt Q13523)", "T4 construct": "gene PRPF4B", "from_the_text": "as §1"}, "PIP5K2C": {"target": "T5, PIP5K2C (Homo sapiens, UniProt Q8TBX8)", "T5 construct": "gene PIP4K2C", "T5 sequence (Q8TBX8 whole entry)": "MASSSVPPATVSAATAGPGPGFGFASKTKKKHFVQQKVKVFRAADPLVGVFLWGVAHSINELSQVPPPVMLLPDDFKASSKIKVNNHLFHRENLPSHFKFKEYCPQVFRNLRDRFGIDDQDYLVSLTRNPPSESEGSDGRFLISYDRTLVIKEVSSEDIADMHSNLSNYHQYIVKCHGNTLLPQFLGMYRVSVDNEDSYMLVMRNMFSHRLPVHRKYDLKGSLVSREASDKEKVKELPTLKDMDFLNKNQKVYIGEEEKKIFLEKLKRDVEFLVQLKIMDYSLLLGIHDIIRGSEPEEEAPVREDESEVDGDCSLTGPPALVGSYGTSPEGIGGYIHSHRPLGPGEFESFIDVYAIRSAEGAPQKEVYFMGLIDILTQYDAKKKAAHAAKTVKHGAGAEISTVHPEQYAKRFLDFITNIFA", "from_the_text": "as §1"}, "GAK": {"target": "GAK (Homo sapiens, UniProt O14976)", "from_the_text": "as §1"}, "MST4": {"target": "T6, MST4 (Homo sapiens, UniProt Q9P289)", "T6 construct": "gene STK26", "from_the_text": "as §1"}, "ACVR1": {"target": "ACVR1 (Homo sapiens, UniProt Q04771)", "from_the_text": "as §1"}, "MLK2": {"target": "T7, MLK2 (Homo sapiens, UniProt Q02779)", "T7 construct": "gene MAP3K10", "T7 sequence (Q02779 whole entry)": "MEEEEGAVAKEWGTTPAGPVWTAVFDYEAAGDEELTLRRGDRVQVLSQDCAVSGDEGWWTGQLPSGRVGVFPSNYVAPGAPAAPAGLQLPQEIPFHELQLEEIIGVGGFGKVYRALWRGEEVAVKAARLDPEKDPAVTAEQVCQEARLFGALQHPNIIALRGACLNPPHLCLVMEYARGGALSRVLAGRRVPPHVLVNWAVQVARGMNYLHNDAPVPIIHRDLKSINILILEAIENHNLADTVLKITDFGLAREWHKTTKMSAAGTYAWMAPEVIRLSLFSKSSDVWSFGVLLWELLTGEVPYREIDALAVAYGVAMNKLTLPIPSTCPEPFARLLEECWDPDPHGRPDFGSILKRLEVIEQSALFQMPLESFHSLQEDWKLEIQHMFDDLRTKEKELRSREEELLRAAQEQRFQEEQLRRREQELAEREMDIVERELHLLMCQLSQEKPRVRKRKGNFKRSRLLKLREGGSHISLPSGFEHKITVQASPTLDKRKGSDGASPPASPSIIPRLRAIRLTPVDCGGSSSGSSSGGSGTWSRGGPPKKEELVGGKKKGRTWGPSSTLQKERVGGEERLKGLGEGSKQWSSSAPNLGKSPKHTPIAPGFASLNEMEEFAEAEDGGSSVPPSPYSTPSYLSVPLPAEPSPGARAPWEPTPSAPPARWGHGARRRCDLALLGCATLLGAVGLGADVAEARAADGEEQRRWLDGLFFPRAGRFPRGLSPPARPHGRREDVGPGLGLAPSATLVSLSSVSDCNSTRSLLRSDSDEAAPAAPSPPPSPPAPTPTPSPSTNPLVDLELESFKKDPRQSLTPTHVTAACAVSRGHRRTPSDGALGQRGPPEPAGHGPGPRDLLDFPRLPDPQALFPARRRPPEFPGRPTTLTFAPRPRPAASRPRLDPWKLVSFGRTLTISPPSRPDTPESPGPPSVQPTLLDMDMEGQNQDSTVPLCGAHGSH", "from_the_text": "as §1"}, "ROCK1": {"target": "ROCK1 (Homo sapiens, UniProt Q13464)", "from_the_text": "as §1"}, "LCK": {"target": "LCK (Homo sapiens, UniProt P06239)", "from_the_text": "as §1"}, "[2]": {"target": "T8, TYK2(JH2domain-pseudokinase) (Homo sapiens, UniProt P29597)", "T8 construct": "JH2domain-pseudokinase", "from_the_text": "as §1"}, "FGFR3": {"target": "FGFR3 (Homo sapiens, UniProt P22607)", "from_the_text": "as §1"}}}
{"smiles": "Cn1c(=O)[nH]c2ccc(-c3cccc(C(=O)NC4CCn5ccnc5C4)c3)cc21", "note": "(stereo not shown) [Z36-MP5]", "values": [{"measurement": "remaining binding at 1 µM", "setting": "MKK7", "result": 72, "unit": "%"}, {"measurement": "remaining binding at 1 µM", "setting": "WNK2", "result": 63, "unit": "%"}, {"measurement": "remaining binding at 1 µM", "setting": "FLT3(ITD,D835V)", "result": 56, "unit": "%"}, {"measurement": "remaining binding at 1 µM", "setting": "AURKB", "result": 84, "unit": "%"}, {"measurement": "remaining binding at 1 µM", "setting": "FLT3(D835V)", "result": 55, "unit": "%"}, {"measurement": "remaining binding at 1 µM", "setting": "EPHA6", "result": 69, "unit": "%"}, {"measurement": "remaining binding at 1 µM", "setting": "EPHB1", "result": 89, "unit": "%"}, {"measurement": "remaining binding at 1 µM", "setting": "ERBB3", "result": 100, "unit": "%"}, {"measurement": "remaining binding at 1 µM", "setting": "CDK3", "result": 43, "unit": "%"}, {"measurement": "remaining binding at 1 µM", "setting": "TNK1", "result": 77, "unit": "%"}, {"measurement": "remaining binding at 1 µM", "setting": "YES", "result": 99, "unit": "%"}, {"measurement": "remaining binding at 1 µM", "setting": "GSK3A", "result": 95, "unit": "%"}, {"measurement": "remaining binding at 1 µM", "setting": "TNNI3K", "result": 96, "unit": "%"}, {"measurement": "remaining binding at 1 µM", "setting": "[1]", "result": 74, "unit": "%"}, {"measurement": "remaining binding at 1 µM", "setting": "TRPM6", "result": 90, "unit": "%"}, {"measurement": "remaining binding at 1 µM", "setting": "PRP4", "result": 84, "unit": "%"}, {"measurement": "remaining binding at 1 µM", "setting": "PIP5K2C", "result": 80, "unit": "%"}, {"measurement": "remaining binding at 1 µM", "setting": "GAK", "result": 71, "unit": "%"}, {"measurement": "remaining binding at 1 µM", "setting": "MST4", "result": 82, "unit": "%"}, {"measurement": "remaining binding at 1 µM", "setting": "ACVR1", "result": 47, "unit": "%"}, {"measurement": "remaining binding at 1 µM", "setting": "MLK2", "result": 95, "unit": "%"}, {"measurement": "remaining binding at 1 µM", "setting": "ROCK1", "result": 54, "unit": "%"}, {"measurement": "remaining binding at 1 µM", "setting": "LCK", "result": 49, "unit": "%"}, {"measurement": "remaining binding at 1 µM", "setting": "[2]", "result": 79, "unit": "%"}, {"measurement": "remaining binding at 1 µM", "setting": "FGFR3", "result": 84, "unit": "%"}]}
